Measurements as given in US10800788B2, “4-(aryl)-N-(3-alkoxyfuro[2,3-b]pyrazin-2-yl)-piperazine-1-carboxamide derivative and antiproliferative effect thereof” (Dongguk University Industry-Academic Cooperation Foundation, priority 2016, dated 2020).

Columns and labels:
[1] = test system: HUVEC; assay: Cell growth inhibition experiment (SRB), HUVEC; type: cell-based, human; settings: Homo sapiens, HUVEC, 96 h, 96 hours incubation, read-out: IC50 (μM) […]
Experimental: (§1) The 4-(aryl)-N-(3-alkoxyfuro[2,3-b]pyrazin-2-yl)-piperazine-1-carboxamide derivative compounds synthesized according to Examples 1 to 60 of the present invention were treated with various human tissue-derived cancer cell lines cultured according to Experimental Example 1, and thus the inhibitory effect of the growth of human cancer cells was confirmed. The cell growth inhibition experiment was conducted using the sulforhodamine B (SRB) technique (Skehan et al., J. National Cancer Institute, 1990, 82: 1107-1112). Specifically, each cell line was seeded in a 96-well plate at a density of 2 to 3×10^3 cells/well, cultured overnight, and then treated with the 4-(aryl)-N-(3-alkoxyfuro[2,3-b]pyrazin-2-yl)-piperazine-1-carboxamide derivative compounds of the present invention. The experiment was repeated 3 times for each compound. Cells treated with each compound were additionally incubated for 96 hours, fixed with 10% trichloroacetic acid (TCA), and then left at 4° C. for 1 hour. The resultant was washed 3 times with distilled water. Thereafter, each cell was treated with 0.4% sulforhodamine B dissolved in 1% acetic acid, stained for 30 minutes, and then washed 4 times with 1% acetic acid. The resultant was dried in the air. After shaking the resultant in Tris solution (10 mM) for 5 minutes, the absorbance was measured at 530 nm using a Benchmark Plus Microplate reader (Bio-Rad Laboratories, Hercules, Calif.).
(§2) In order to convert the OD530 value to the number of viable cells per each well, the measured OD530 value was compared to the standard OD530-vs.-cell number curve of each cell line. The percent survival was calculated using the following formula: % survival=Nlive cells(test)/Nlive cells(control)×100

[2] = test system: SK-OV-3; assay: Cell growth inhibition experiment (SRB), SK-OV-3; type: cell-based, human; settings: Homo sapiens, SK-OV-3, 96 h, 96 hours incubation, read-out: IC50 (μM) for cancer cell line SK-OV-3
Experimental: as §1, §2

[3] = test system: MDA-MB-231 (breast cancer) cell line; assay: Cell growth inhibition experiment (SRB), MDA-MB-231; type: cell-based, human; settings: Homo sapiens, MDA-MB-231, 96 h, 96 hours incubation
Experimental: (§3) The cell lines below were used in order to confirm the efficacy of the compounds synthesized in Examples 1 to 60. Human PANC-1 (pancreatic cancer) and MDA-MB-231 (breast cancer) cell lines were obtained from the American Type Culture Collection (ATCC; Manassas, Va.); and HN31 (head and neck cancer) and UMRC2 (kidney cancer) cell lines were secured from the United States National Institutes of Health (Bethesda, Md.). The MDA-MB-231, UMRC2, HN31, and PANC-1 cell lines were cultured in Dulbecco modified Eagle medium (DMEM; Invitrogen, Carlsbad, Calif.) containing FBS (10%), HEPES (10 mM), penicillin (100 U/mL), and streptomycin (100 μg/mL). All cell lines were cultured in an incubator (37° C., 5% CO2).
as §1, §2

[4] = test system: HEK293; assay: Cell growth inhibition experiment (SRB), HEK293; type: cell-based, human; settings: Homo sapiens, HEK293, 96 h, 96 hours incubation, read-out: IC50 (μM) for cancer cell line HEK293
Experimental: as §1, §2

[5] = test system: HT29; assay: Cell growth inhibition experiment (SRB), HT29; type: cell-based, human; settings: Homo sapiens, HT-29, 96 h, 96 hours incubation, read-out: IC50 (μM) for cancer cell line HT29
Experimental: as §1, §2

[6] = test system: UMRC2 (kidney cancer) cell line; assay: Cell growth inhibition experiment (SRB), UMRC2; type: cell-based, human; settings: Homo sapiens, UMRC2, 96 h, 96 hours incubation
Experimental: as §3, §1, §2

[7] = test system: PANC-1 (pancreatic cancer) cell line; assay: Cell growth inhibition experiment (SRB), PANC-1; type: cell-based; settings: Homo sapiens, PANC-1, 96 h, 96 hours incubation
Experimental: as §3, §1, §2

[8] = test system: HN31 (head and neck cancer) cell line; assay: Cell growth inhibition experiment (SRB), HN31; type: cell-based, human; settings: Homo sapiens, 96 h, 96 hours incubation
Experimental: as §3, §1, §2

[9] = test system: A549; assay: Cell growth inhibition experiment (SRB), A549; type: cell-based; settings: Homo sapiens, A549, 96 h, 96 hours incubation, read-out: IC50 (μM) for cancer cell line A549
Experimental: as §1, §2

IC50 [2]	IC50 [3]	IC50 [5]	IC50 [6]	IC50 [7]	IC50 [8]	IC50 [9]	SMILES	IC50 [1]	IC50 [4]
1.12 µM	0.68 µM	1.12 µM	0.63 µM	0.54 µM	1.32 µM	0.25 µM	COc1nc2oc(C)cc2nc1NC(=O)N1CCN(c2cccc(OC(F)(F)F)c2)CC1 [Example 30, N-(3-Methoxy-6-methylfuro[2,3-b]pyrazin-2-yl)-4-(3-(trifluoromethoxy)phenyl)piperazine-1-carboxamide]	1.12 µM	0.58 µM
< 2.5 µM	0.51 µM	1.87 µM	0.32 µM	0.36 µM	0.68 µM	1.87 µM	COc1cc(OC)cc(N2CCN(C(=O)Nc3nc4cc(Cl)oc4nc3OC)CC2)c1 [Example 41, N-(6-Chloro-3-methoxyfuro[2,3-b]pyrazin-2-yl)-4-(3,5-dimethoxyphenyl)piperazine-1-carboxamide]	1.73 µM	1.66 µM
< 2.5 µM	0.69 µM	< 2.5 µM	0.32 µM	0.68 µM	1.68 µM	1.81 µM	COc1nc2oc(Cl)cc2nc1NC(=O)N1CCN(c2cc(C)cc(C)c2)CC1 [Example 45, N-(6-Chloro-3-methoxyfuro[2,3-b]pyrazin-2-yl)-4-(3,5-dimethylphenyl)piperazine-1-carboxamide]	< 2.5 µM	2.01 µM
< 2.5 µM	0.36 µM	1.87 µM	1.68 µM	1.23 µM	1.68 µM	1.87 µM	COc1cc(C)cc(N2CCN(C(=O)Nc3nc4cc(Cl)oc4nc3OC)CC2)c1 [Example 42, N-(6-Chloro-3-methoxyfuro[2,3-b]pyrazin-2-yl)-4-(3-methoxy-5-methylphenyl)piperazine-1-carboxamide]	1.47 µM	1.37 µM
< 2.5 µM	1.68 µM	< 2.5 µM	1.35 µM	1.94 µM	1.83 µM	< 2.5 µM	COc1nc2oc(Cl)cc2nc1NC(=O)N1CCN(c2cc(C)cc(F)c2)CC1 [Example 46, N-(6-Chloro-3-methoxyfuro[2,3-b]pyrazin-2-yl)-4-(3-fluoro-5-methylphenyl)piperazine-1-carboxamide]	< 2.5 µM	< 2.5 µM
< 2.5 µM	0.15 µM	< 2.5 µM	0.21 µM	0.24 µM	0.31 µM	0.41 µM	CCOc1nc2oc(C)cc2nc1NC(=O)N1CCN(c2cc(F)cc(OC)c2)CC1 [Example 33, N-(3-Ethoxy-6-methylfuro[2,3-b]pyrazin-2-yl)-4-(3-fluoro-5-methoxyphenyl)piperazine-1-carboxamide]	< 2.5 µM	0.51 µM

The next lines start with the compound.

SMILES	IC50 [2]	IC50 [3]	IC50 [5]	IC50 [6]	IC50 [7]	IC50 [8]	IC50 [9]	IC50 [1]	IC50 [4]
COc1nc2occc2nc1NC(=O)N1CCN(c2cc(C)cc(F)c2)CC1 [Example 6, 4-(3-Fluoro-5-methylphenyl)-N-(3-methoxyfuro[2,3-b]pyrazin-2-yl)piperazine-1-carboxamide]	< 2.5 µM	1.13 µM	< 2.5 µM	1.21 µM	0.98 µM	1.98 µM	1.78 µM	< 2.5 µM	1.83 µM
CCOc1nc2occc2nc1NC(=O)N1CCN(c2cc(C)cc(OC)c2)CC1 [Example 12, N-(3-Ethoxyfuro[2,3-b]pyrazin-2-yl)-4-(3-methoxy-5-methylphenyl)piperazine-1-carboxamide]	1.29 µM	0.05 µM	1.3 µM	0.14 µM	0.24 µM	0.33 µM	1.28 µM	0.27 µM	1.55 µM
CCOc1nc2occc2nc1NC(=O)N1CCN(c2cc(F)cc(F)c2)CC1 [Example 17, 4-(3,5-Difluorophenyl)-N-(3-ethoxyfuro[2,3-b]pyrazin-2-yl)piperazine-1-carboxamide]	< 2.5 µM	0.24 µM	< 2.5 µM	1.65 µM	< 2.5 µM	< 2.5 µM	< 2.5 µM	< 2.5 µM	< 2.5 µM
COc1nc2oc(C)cc2nc1NC(=O)N1CCN(c2cc(C(F)(F)F)cc(C(F)(F)F)c2)CC1 [Example 29, 4-(3,5-Bis(trifluoromethyl)phenyl)-N-(3-methoxy-6-methylfuro[2,3-b]pyrazin-2-yl)piperazine-1-carboxamide]	< 2.5 µM	< 2.5 µM	< 2.5 µM	< 2.5 µM	< 2.5 µM	< 2.5 µM	< 2.5 µM	< 2.5 µM	< 2.5 µM
CCOc1nc2occc2nc1NC(=O)N1CCN(c2cc(C)cc(C)c2)CC1 [Example 15, 4-(3,5-Dimethylphenyl)-N-(3-ethoxyfuro[2,3-b]pyrazin-2-yl)piperazine-1-carboxamide]	< 2.5 µM	0.24 µM	< 2.5 µM	0.25 µM	1.12 µM	0.78 µM	< 2.5 µM	< 2.5 µM	< 2.5 µM
CCOc1nc2occc2nc1NC(=O)N1CCN(c2cc(C(F)(F)F)cc(C(F)(F)F)c2)CC1 [Example 19, 4-(3,5-Bis(trifluoromethyl)phenyl)-N-(3-ethoxyfuro[2,3-b]pyrazin-2-yl)piperazine-1-carboxamide]	< 2.5 µM	0.34 µM	0.71 µM	0.68 µM	1.23 µM	0.36 µM	0.44 µM	0.68 µM	1.23 µM
COc1nc2occc2nc1NC(=O)N1CCN(c2cccc(OC(F)(F)F)c2)CC1 [Example 10, N-(3-Methoxyfuro[2,3-b]pyrazin-2-yl)-4-(3-(trifluoromethoxy)phenyl)piperazine-1-carboxamide]	1.23 µM	1.02 µM	1.27 µM	1.13 µM	0.68 µM	0.28 µM	1.14 µM	1.36 µM	0.56 µM
COc1nc2occc2nc1NC(=O)N1CCN(c2cc(F)cc(C(F)(F)F)c2)CC1 [Example 8, 4-(3-Fluoro-5-(trifluoromethyl)phenyl)-N-(3-methoxyfuro[2,3-b]pyrazin-2-yl)piperazine-1-carboxamide]	< 2.5 µM	0.98 µM	< 2.5 µM	0.88 µM	1.98 µM	< 2.5 µM	< 2.5 µM	< 2.5 µM	< 2.5 µM
COc1nc2oc(C)cc2nc1NC(=O)N1CCN(c2cc(C)cc(C)c2)CC1 [Example 25, 4-(3,5-Dimethylphenyl)-N-(3-methoxy-6-methylfuro[2,3-b]pyrazin-2-yl)piperazine-1-carboxamide]	0.63 µM	0.15 µM	0.25 µM	< 2.5 µM	0.08 µM	0.17 µM	0.22 µM	0.13 µM	0.36 µM
CCOc1nc2occc2nc1NC(=O)N1CCN(c2cc(OC)cc(OC)c2)CC1 [Example 11, 4-(3,5-Dimethoxyphenyl)-N-(3-ethoxyfuro[2,3-b]pyrazin-2-yl)piperazine-1-carboxamide]	1.27 µM	0.07 µM	1.31 µM	0.07 µM	0.24 µM	0.41 µM	1.51 µM	0.07 µM	0.65 µM
